Reference: PMC5738391, “Three classes of ligands each bind to distinct sites on the orphan G protein-coupled receptor GPR84” (Scientific Reports, 2017)

Assays:
[1] = tested on: GPR84-Gαi2 fusion protein; assay: [35S]GTPγS binding, membranes expressing GPR84-Gαi2 fusion protein; format: biochemical, human; details: wild type GPR84-Gαi2 fusion, pertussis toxin 24 h
Text: The only previous study[3] designed to explore the mode of binding of ligands to GPR84 employed a fusion protein[31],[32] in which the G protein Gαi1 was linked in-frame to the C-terminal tail of GPR84. […] These studies indicate that following pertussis toxin treatment of cells expressing the GPR84-Cys^352Ile Gαi2 fusion protein all agonist-induced binding of [^35S]GTPγS reflects incorporation of nucleotide into the receptor-linked G protein α subunit.
Membranes were generated from Flp-In T-REx HEK293 cells treated with 100 ng/mL doxycycline to induce expression of the receptor construct of interest. Cells were washed with ice-cold phosphate-buffered saline, removed from dishes by scraping and centrifuged at 3000 rpm for 5 min at 4 °C. Pellets were resuspended in TE buffer (10 mM Tris-HCl, 0.1 mM EDTA; pH 7.5) containing a protease inhibitor mixture (Roche Applied Science, West Sussex, UK) and homogenized with a 5 ml hand-held homogenizer. This material was centrifuged at 1500 rpm for 5 min at 4 °C and the supernatant was further centrifuged at 50000 rpm for 45 min at 4 °C. The resulting pellet was resuspended in TE buffer and protein content was assessed using a BCA protein assay kit (Pierce, Fisher Scientific, Loughborough, UK).
Initially, 5 μg of generated membrane protein was pre-incubated for 15 min at 25 °C in assay buffer (20 mM HEPES, 5 mM MgCl2; 160 mM NaCl; 1 μM GDP; 0.05% fatty acid-free bovine serum albumin; pH 7.5) containing the indicated ligand concentrations. […] The reaction was then initiated with addition of [^35S]GTPγS (50 nCi per tube), and the reaction was terminated after 45 minutes incubation at 30 °C by rapid filtration through GF/C glass filters using a 24-well Brandel cell harvester (Alpha Biotech, Glasgow, UK). Unbound radioligand was removed from filters by three washes with ice-cold phosphate buffered saline (pH 7.4) and filters were dried for 2–3 h at room temperature. Dried filters were added to 3 mL of Ultima Gold^TM XR (PerkinElmer Life Sciences, Beaconsfield, UK) and [^35S]GTPγS binding was determined by liquid scintillation spectrometry.

[2] = biological target: T1, FLAG-Arg^174Ala hGPR84-eYFP (Homo sapiens, UniProt Q9NQS5, R174A); assay: [35S]GTPγS binding, Arg174Ala mutant receptor; format: biochemical
T1 construct: expressed in transfected cells; host or cells: membranes of Flp-In T-REx 293 cells, doxycycline-induced

[3] = parameters: method as in PMID 17164373; details: cited from earlier work
[4] = biological target: GPR84-Cys^352Ile Gαi2 fusion protein (Homo sapiens, UniProt Q9NQS5); assay: [3H]G9543 radioligand binding (saturation and displacement), GPR84-Cys352Ile Gαi2 fusion protein; parameters: Cys352Ile Gαi2 (fusion partner, same polypeptide); expressed in transfected cells; host or cells: membranes of Flp-In T-REx 293 cells, doxycycline-induced; details: displacement assay
Description: [^3H]G9543 is an analog of compounds 104, 107 and 161 with the same characteristic 2-(substituted-alkoxy)-9-substituted-6,7-dihydro-pyrimido[6,1-a]isoquinolin-4-one chemotype. […] Binding was initiated by the addition of membranes (5 µg of protein per tube). All assays were performed at 25 °C for 1 h before termination by the addition of ice-cold phosphate-buffered saline and vacuum filtration through GF/C glass filters using a 24-well Brandel cell harvester (Alpha Biotech, Glasgow, UK). Each reaction tube was washed three times with ice-cold PBS. The filters were allowed to dry for 2–3 h and then placed in 3 ml of Ultima Gold^TM XR. Radioactivity was quantified by liquid scintillation spectrometry. Specific binding was defined as the difference between binding detected in the presence and absence of 1 µM compound 104.
All data are presented as means ± SEM of at least three independent experiments. Data analysis and curve fitting was carried out using the GraphPad Prism software package version 5.0b (GraphPad, San Diego). For functional assays the concentration-response data were plotted on a log axis, with the untreated vehicle control plotted at 1 log unit lower than the lowest ligand concentration, and fitted to a three parameter sigmoidal curve with the Hill slope constrained to equal 1. In case of inhibition experiments with antagonists an equivalent analysis was followed to fit an inverse sigmoidal curve. To perform the statistical analysis of curve parameters, data from multiple experiments were fitted independently and resulting curve fit values were analysed with indicated tests. For radioligand binding data, saturation binding curves were generated by fitting the specific binding, which was obtained by subtracting non-specific from total binding, to a one site specific binding model that allows calculation of Kd values for the radioligand at wild type and mutant receptors. To determine affinity of unlabelled ligands, data obtained in displacement assays were fit to an inverse three parameter sigmoidal curve constrained by radioligand affinity and concentration to allow for Ki calculation.

[5] = biological target: T2, human GPR84 (FLAG-hGPR84-eYFP) (Homo sapiens, UniProt Q9NQS5); assay: HTRF-based cAMP inhibition assay in Flp-In T-REx 293 cells expressing FLAG-hGPR84-eYFP; format: cell-based; details: 100 μM of each MCFA
T2 construct: expressed in transfected cells
Description: For the assay cells were plated at 5000 cells/well in low-volume 384-well plates. The ability of agonists to inhibit 1 μM forskolin-induced cAMP production was assessed following a co-incubation for 30 min with agonist compounds.

[6] = oral dosing to women of up to 1000 mg of indole-3-carbinol

T1 sequence (Q9NQS5 whole entry R174A): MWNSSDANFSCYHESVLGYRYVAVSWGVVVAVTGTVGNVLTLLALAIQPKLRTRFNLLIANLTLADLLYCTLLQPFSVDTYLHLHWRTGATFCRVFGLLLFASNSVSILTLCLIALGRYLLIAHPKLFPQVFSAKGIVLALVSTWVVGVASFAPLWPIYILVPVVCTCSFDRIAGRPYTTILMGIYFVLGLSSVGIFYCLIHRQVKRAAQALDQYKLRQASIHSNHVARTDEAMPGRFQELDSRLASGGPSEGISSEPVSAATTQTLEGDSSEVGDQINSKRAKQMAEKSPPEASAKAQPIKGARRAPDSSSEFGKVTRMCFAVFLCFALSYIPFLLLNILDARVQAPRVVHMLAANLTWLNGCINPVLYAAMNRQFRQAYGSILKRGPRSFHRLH
GPR84-Cys^352Ile Gαi2 fusion protein, sequence (Q9NQS5 2-396): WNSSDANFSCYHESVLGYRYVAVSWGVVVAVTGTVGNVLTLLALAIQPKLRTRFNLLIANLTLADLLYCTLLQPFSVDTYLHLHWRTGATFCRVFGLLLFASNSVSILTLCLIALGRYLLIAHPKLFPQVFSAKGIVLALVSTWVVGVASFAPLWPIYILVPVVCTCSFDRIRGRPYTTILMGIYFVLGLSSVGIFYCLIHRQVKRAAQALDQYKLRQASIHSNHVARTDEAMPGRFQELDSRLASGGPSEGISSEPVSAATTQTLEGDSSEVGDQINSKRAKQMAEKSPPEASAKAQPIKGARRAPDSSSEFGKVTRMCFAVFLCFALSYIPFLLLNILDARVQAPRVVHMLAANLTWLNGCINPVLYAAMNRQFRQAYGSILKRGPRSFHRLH
T2 sequence (Q9NQS5 whole entry): as the sequence (Q9NQS5 whole entry R174A) above, with A174R counted along it

| Structure (SMILES) | response after pertussis toxin pre-treatment [1] | effect of Arg174Ala mutation on agonist function or potency [2] | clearance from plasma ([3]; after oral indole-3-carbinol) | peak plasma level of DIM [3, 6] | time to peak plasma level of DIM [3, 6] | ability to compete with [3H]G9543 binding [4] | capacity to inhibit forskolin-amplified levels of cAMP, compared among MCFAs of chain length C9-C14 [5] |
| --- | --- | --- | --- | --- | --- | --- | --- |
| c1ccc2c(Cc3c[nH]c4ccccc34)c[nH]c2c1 [DIM, 3,-3′-diindolylmethane] | all but eliminated | did not affect function or potency | rapidly cleared | 500–600 ng/ml and approximately 2 μM | ≤ 2 h | neither C10 nor DIM was able to compete effectively | – |
| CCCCCCCCCC(=O)O [C10, decanoic acid] | – | did not affect function or potency | – | – | – | neither C10 nor DIM was able to compete effectively | produced the largest effect |
